The subject of data set [1] is CEM/VLB1000 Cells. Description: Enhancement of 3H-vinblastine accumulation. The class given is cell-based. Conditions: midpoint (EC50) of minimum and maximum increase in accumulation of 3H-vinblastine, 3H-vinblastine 550 nM, 3 hours at 37°C, read-out: [^3H]VLB Accumulation (µM) CEM/VLB1000 Cells. As to the method: Enhancement of ^3H-vinblastine accumulation was also measured in the cell line. Corning Easy-Wash 96 well plates were pretreated with PBS and 1% BSA for 60 minutes and then dried. CEM/VLB1000 cells were seeded at 2 x 10^5, 40 µL volume. Plates were incubated at 37°C for 30-60 minutes prior to use. The reference reversing agent, verapamil, or the compound of the present invention was added to the well followed by addition of media containing ^3H-vinblastine (final concentration = 550 nM). Plates were allowed to incubate for 3 hours at 37°C. Cells were harvested onto pretreated Wallace filtermats B (pretreated overnight with 0.1% polyethyleneimine) using a TomTek harvester-96. After filtering, the filtermats were allowed to dry completely. Meltix B scintillant was then added to the filtermats. The filters were then placed in a 90°C oven for approximately 3-5 minutes and then removed. Scintillant was allowed to solidify on the filtermats. Filtermats were then placed in sample bags and read on a Wallace BetaPlate scintillation counter. The effect of compounds of the present invention in the cytotoxicity potentiation assays and vinblastine (VLB) accumulation assay is given in the Table below: […]

For data set [2], the system named is CEM/VLB1000 Cells. Description: Cytotoxicity potentiation assay (alamar blue), vinblastine in CEM/VLB1000 cells. Conditions: read-out: Cytotoxicity Potentiation (µM) CEM/VLB1000 Cells; midpoint (EC50) of minimum and maximum cytotoxicity induced by 5 µg/mL vinblastine and compound; 48 hours incubation, alamar blue 24 hours. On the procedure: Multidrug-resistant cell lines are easily obtainable for in vitro determination of drug sensitization by compounds of the present invention. In vitro potentiation of antineoplastic cytotoxicity by the imidazole derivatives of the present invention was measured in both CEM/VLB1000 and SK/VLB1000 cell lines. The multidrug resistant cell lines-were obtained from Dr. Victor Ling, Ontario Cancer Institute, Toronto, Canada. The CEM/VLB 1000 cell line was maintained as a suspension in minimum essential medium supplemented with 10% of fetal bovine serum in a humidied atmosphere of 95% air and 5% CO2 while the SK/VLB 1000 cell line was maintained as adherent cells using the identical medium conditions as the CEM cells. The CEM/VLB 1000 cells were seeded at a density of 5 x 10^4 cells/well in a 96 well microtiter plate while the SK/VLB 1000 cell line was seeded at a density of 2,500 cells/well after trypsinization. Vinblastine (5 µg/mL, for the CEM cells) or Taxol (3 µg/mL, for the SK cells) and compound (0.01 to 50 µM) were added directly to the wells. After an incubation of 48 hours in presence of drug, alamar blue (B. Page et al., Int. J. Oncol. 3: 473-476, 1993) was added (20 µL to the 200 µL cell suspension) for a period of 24 hours after which the fluorescence (excitation = […], emission = […]) was read for each well using a "CytoFluor" microtiter fluorometer plate reader. This assay measures the minimal concentration of compound necessary to enhance the cytotoxicity (EC50) of vinblastine in the MDR cell line.

Another data set concerns SK/VLB1000 Cells. Kind of data set: Cytotoxicity potentiation assay (alamar blue), Taxol in SK/VLB1000 cells. The class given is cell-based. Particulars: midpoint (EC50) of minimum and maximum cytotoxicity; method: Taxol 3 µg/mL for the SK cells (footnote: 5 µg/mL vinblastine); 48 hours incubation, alamar blue 24 hours.

Structures are written as SMILES. Where a name gives a salt, the structure may show the parent alone.

Description for SK/VLB1000 Cells: In vitro potentiation of antineoplastic cytotoxicity by the imidazole derivatives of the present invention was measured in both CEM/VLB1000 and SK/VLB1000 cell lines. The multidrug resistant cell lines-were obtained from Dr. Victor Ling, Ontario Cancer Institute, Toronto, Canada. The CEM/VLB 1000 cell line was maintained as a suspension in minimum essential medium supplemented with 10% of fetal bovine serum in a humidied atmosphere of 95% air and 5% CO2 while the SK/VLB 1000 cell line was maintained as adherent cells using the identical medium conditions as the CEM cells. The CEM/VLB 1000 cells were seeded at a density of 5 x 10^4 cells/well in a 96 well microtiter plate while the SK/VLB 1000 cell line was seeded at a density of 2,500 cells/well after trypsinization. Vinblastine (5 µg/mL, for the CEM cells) or Taxol (3 µg/mL, for the SK cells) and compound (0.01 to 50 µM) were added directly to the wells. After an incubation of 48 hours in presence of drug, alamar blue (B. Page et al., Int. J. Oncol. 3: 473-476, 1993) was added (20 µL to the 200 µL cell suspension) for a period of 24 hours after which the fluorescence (excitation = 530 nM, emission = 590 nM) was read for each well using a "CytoFluor" microtiter fluorometer plate reader. This assay measures the minimal concentration of compound necessary to enhance the cytotoxicity (EC50) of vinblastine in the MDR cell line.

On to `Oc1ccc(-c2nc(-c3ccccc3)c(-c3ccccc3)n2-c2ccccc2)cc1` [Example 1, 2-(4-hydroxyphenyl)-1,4,5-triphenyl-imidazole trifluoroacetic acid salt], for which the EC50 in the data set on CEM/VLB1000 Cells [1] is 20 µM.
On to `COc1ccc(-c2nc(-c3ccc(O)cc3)n(Cc3ccccc3)c2-c2ccc(OC)cc2)cc1` [Example 2, 1-benzyl-2-(4-hydroxyphenyl)-4,5-di-(4-methoxyphenyl)-imidazole trifluoroacetic acid salt], for which the EC50 with CEM/VLB1000 Cells [1] is 2 µM.
In the case of `CN(C)c1ccc(-c2nc(-c3ccc(C(=O)O)cc3)[nH]c2-c2ccc(N(C)C)cc2)cc1` [Example 3, 2-(4-carboxyphenyl)-4,5-di-[4-(dimethylamino)-phenyl]-1(H)-imidazole], in the data set on CEM/VLB1000 Cells [2], the EC50 is 10 µM.
With `COC(=O)c1ccc(-c2nc(-c3ccc(N(C)C)cc3)c(-c3ccc(N(C)C)cc3)[nH]2)cc1` [Example 4, 4,5-di-[4-(dimethylamino)-phenyl]-2-[4-(methoxycarbonyl)-phenyl]-1(H)-imidazole], the results for the EC50 in the data set on CEM/VLB1000 Cells [2], with SK/VLB1000 Cells and with CEM/VLB1000 Cells [1] were 0.3 µM, 1 µM and 5 µM, respectively.
The like results for `CCCCCCn1c(-c2ccc(C(=O)O)cc2)nc(-c2ccc(N(C)C)cc2)c1-c1ccc(N(C)C)cc1` [Example 5, 2-(4-carboxyphenyl)-4,5-di-[4-(dimethylamino)-phenyl]-1-(n-hexyl)-imidazole] were, in that order, 3 µM, 10 µM and 12 µM.
Take `CCCCCCn1c(-c2ccc(C(=O)OC)cc2)nc(-c2ccc(N(C)C)cc2)c1-c1ccc(N(C)C)cc1` [Example 6, 4,5-di-[4-(dimethylamino)-phenyl]-1-(n-hexyl)-2-[4-(methoxycarbonyl)-phenyl]-imidazole]: the EC50 with CEM/VLB1000 Cells [2] was 5 µM.
The same measure, in the same setting: under `CN(C)c1ccc(-c2nc(-c3ccc(/C=C/C(=O)O)cc3)[nH]c2-c2ccc(N(C)C)cc2)cc1` [Example 7, 2-[4-(trans-2-carboxyethenyl)-phenyl] -4,5-di-[4-(dimethylamino)-phenyl]-1(H)-imidazole] stands 10 µM.
Take `COC(=O)C=Cc1ccc(-c2nc(-c3ccc(N(C)C)cc3)c(-c3ccc(N(C)C)cc3)[nH]2)cc1` [Example 8, 4,5-di-[4-(dimethylamino)-phenyl]-2-{4-[trans-(2-methoxycarbonyl)-ethenyl]-phenyl}-1(H)-imidazole]: the EC50 in the data set on CEM/VLB1000 Cells [2] is 0.3 µM; with SK/VLB1000 Cells it was 0.3 µM; in the data set with CEM/VLB1000 Cells [1], 5 µM.
With `CN(C)c1ccc(-c2nc(-c3ccc(O)cc3)[nH]c2-c2ccc(N(C)C)cc2)cc1` [Example 9, 4,5-di-[4-(dimethylamino)-phenyl]-2-(4-hydroxyphenyl)-1(H)-imidazole], the EC50 with CEM/VLB1000 Cells [2] was 10 µM; in the data set on SK/VLB1000 Cells, 10 µM; in the data set on CEM/VLB1000 Cells [1] it was 20 µM.
`CN(C)c1ccc(-c2nc(-c3ccc(O)cc3)n(CCc3ccccc3)c2-c2ccc(N(C)C)cc2)cc1` [Example 10, 4,5-di-[4-(dimethylamino)-phenyl]-2-(4-hydroxyphenyl)-1-(2-phenylethyl)-imidazole]: the EC50 in the data set on CEM/VLB1000 Cells [2] amounted to 2 µM; in the data set with CEM/VLB1000 Cells [1], 10 µM.
As to `CN(C)c1ccc(-c2nc(-c3ccc(C(=O)O)cc3)n(CCc3ccccc3)c2-c2ccc(N(C)C)cc2)cc1` [Example 11, 2-(4-carboxyphenyl)-4,5-di-[4-(dimethylamino)-phenyl]-1-(2-phenylethyl)-imidazole], in the data set on CEM/VLB1000 Cells [2], the EC50 worked out at 10 µM.
On to `CN(C)c1ccc(-c2nc(-c3ccc(/C=C/C(=O)O)cc3)n(CCc3ccccc3)c2-c2ccc(N(C)C)cc2)cc1` [Example 12, 2-[4-(trans-2-carboxyethenyl)-phenyl]-4,5-di-[4-(dimethylamino)-phenyl]-1-(2-phenylethyl)-imidazole], for which the EC50 in the data set with CEM/VLB1000 Cells [2] came to 10 µM.
Turning to `COC(=O)/C=C/c1ccc(-c2nc(-c3ccc(OC)cc3)c(-c3ccc(OC)cc3)n2CCCCCC(=O)OC)cc1` [Example 13, 4,5-di-(4-methoxyphenyl)-2-{4-[trans-(2-methoxycarbonyl)-ethenyl]-phenyl}-1-[5-(methoxycarbonyl)-n-pentyl)-imidazole], the EC50 in the data set with CEM/VLB1000 Cells [2] turned out to be 0.6 µM.
Regarding `COc1ccc(-c2nc(-c3ccc(/C=C/c4ccccc4)cc3)n(CCCn3ccnc3)c2-c2ccc(OC)cc2)cc1` [Example 14, 2-(trans-4-stilbenyl)-1-[3-(imidazol-1-yl)-n-propyl]-4,5-di-(4-methoxyphenyl)-imidazole], the EC50 amounted to 0.4 µM in the data set on CEM/VLB1000 Cells [2] and 1 µM in the data set with SK/VLB1000 Cells.
The like results for `COC(=O)/C=C/c1ccc(-c2nc(-c3ccc(N(C)C)cc3)c(-c3ccc(N(C)C)cc3)n2CCCCCC(=O)OC)cc1` [Example 15, 4,5-di-[4-(dimethylamino)-phenyl]-2-{4-[trans-(2-methoxycarbonyl)-ethenyl]-phenyl}-1-[5-(methoxycarbonyl)-n-pentyl-]-imidazole] were, in that order, 0.6 µM and 5 µM.
In the case of `CCCCCCn1c(-c2ccc(OCCCN(C)C)cc2)nc(-c2ccc(OC)cc2)c1-c1ccc(OC)cc1` [Example 16, 4,5-di-(4-methoxyphenyl)-2-{4-[3-(dimethylamino)-propyloxy]-phenyl}-1-(n-hexyl)-imidazole], the values for the EC50 in the data set with CEM/VLB1000 Cells [2] and in the data set on SK/VLB1000 Cells were 2 µM and 10 µM, respectively.

These data come from patent EP0812829A1, “Substituted imidazoles as modulators of multi-drug resistance” (ONTOGEN CORPORATION, priority 1996, dated 1997).
